Measured values from patent publication US8476197B2, “Aminopropenoates as fungicides” (priority 2009, dated 2013).
Like-named read-outs stand apart in the source and are kept apart here. Marks after values point to notes of the source that are not given here.

Row | SMILES | Log P (pH 2.7) | Log P (pH 7.5) | Log P (pH 2.3)
1 | CCOCC(NC(=C(C#N)C(=O)OCC)c1cccnc1Cl)C(C)C (stereo not drawn) [Compound 1431] | 3.69^[a] | – | –
2 | CCOC(=O)C(C#N)=C(NC1CCCC1OC)c1cccnc1Cl (stereo not drawn) [Compound 1432] | 2.96^[a] | – | –
3 | CCCC(CC)NC(=C(C#N)C(=O)OCC)c1cccnc1Cl (stereo not drawn) [Compound 1434] | 3.8^[a] | – | –
4 | CCOC(=O)C(C#N)=C(NC1CCc2cccnc21)c1cccnc1Cl (stereo not drawn) [Compound 1436] | 2.4^[a] | – | –
5 | CCOC(=O)C(C#N)=C(NC(C)c1ccc(Cl)nc1)c1cccnc1Cl (stereo not drawn) [Compound 1437] | 2.8^[a] | – | –
6 | CCOC(=O)C(C#N)=C(NC(C)c1cccc(OC)n1)c1cccnc1Cl (stereo not drawn) [Compound 1438] | 3.5^[a] | – | –
7 | CCOC(=O)C(C#N)=C(NC(C)c1cccc(Cl)n1)c1cccnc1Cl (stereo not drawn) [Compound 1439] | 3.2^[a] | – | –
8 | CCOC(=O)C(C#N)=C(NC(C)c1cccc(C)n1)c1cccnc1Cl (stereo not drawn) [Compound 1440] | 2.56^[a] | – | –
9 | CCOC(=O)C(C#N)=C(NC(C)c1ccc2ccccc2n1)c1cccnc1Cl (stereo not drawn) [Compound 1441] | 3.37^[a] | – | –
10 | CCOC(=O)C(C#N)=C(NC(C)c1cc(C)ccn1)c1cccnc1Cl (stereo not drawn) [Compound 1442] | 2.6^[a] | – | –
11 | CCOC(=O)C(C#N)=C(NC(C)C=NO)c1cccnc1Cl (stereo not drawn) [Compound 1443] | – | 1.78 | –
12 | CCOC(=O)C(C#N)=C(NC(C)c1cnc(Cl)s1)c1cccnc1Cl (stereo not drawn) [Compound 1444] | 3.1^[a] | – | –
13 | CCOC(=O)C(C#N)=C(NC(C)c1ccc(Cl)cn1)c1cccnc1Cl (stereo not drawn) [Compound 1445] | 3.3^[a] | – | –
14 | CCOC(=O)C(C#N)=C(NC(C)c1cc(Cl)cc(C)n1)c1cccnc1Cl (stereo not drawn) [Compound 1446] | 3.4^[a] | – | –
15 | CCOC(=O)C(C#N)=C(NC(C)c1csc(-c2ccccc2)n1)c1cccnc1Cl (stereo not drawn) [Compound 1447] | 4^[a] | – | –
16 | CCOC(=O)C(C#N)=C(NC(C)c1ncccc1SC)c1cccnc1Cl (stereo not drawn) [Compound 1448] | 3.1^[a] | – | –
17 | CCOC(=O)C(C#N)=C(NC(C)c1cc(Cl)ccn1)c1cccnc1Cl (stereo not drawn) [Compound 1449] | 3^[a] | – | –
18 | C=CCOC(=O)C(C#N)=C(NC(C)c1nccs1)c1ccc(Cl)nc1Cl (stereo not drawn) [Compound 1450] | – | 3.16 | –
19 | CC(C)C(C)NC(=C(C#N)C(=O)NC1CC1)c1cccnc1Cl (stereo not drawn) [Compound 1451] | – | 2.76 | 2.74
20 | CC(C)C(C)NC(=C(C#N)C(=O)NC1CSC1)c1cccnc1Cl (stereo not drawn) [Compound 1452] | – | 3.22^[c]; 3.22^[b] | 3.22^[c]; 3.22^[b]
21 | CC(C)C(C)NC(=C(C#N)C(=O)NC1CCC1)c1cccnc1Cl (stereo not drawn) [Compound 1453] | – | 3.44^[c]; 3.44^[b] | 3.44^[c]; 3.44^[b]

Row | SMILES | Log P (pH 2.7) | Log P (pH 7.5) | Log P (pH 2.3)
22 | CCONC(=O)C(C#N)=C(NC(C)C(C)C)c1cccnc1Cl (stereo not drawn) [Compound 1454] | – | 2.44^[c]; 2.44^[b] | 2.44^[c]; 2.44^[b]
23 | CC(C)C(C)NC(=C(C#N)C(=O)NC1COC1)c1cccnc1Cl (stereo not drawn) [Compound 1455] | – | 2.26 | 2.24
24 | CC(C)C(C)NC(=C(C#N)C(=O)NC1CC1F)c1cccnc1Cl (stereo not drawn) [Compound 1456] | – | 2.83^[c]; 2.83^[b] | 2.83^[c]; 2.83^[b]
25 | CCOC(=O)C(C#N)=C(NC(C)C(C)C)c1cccnc1-c1ccc(C(F)(F)F)cc1 (stereo not drawn) [Compound 1457] | – | 4.25 | 4.23
26 | C=CCNC(=O)C(C#N)=C(NC(C)C(C)C)c1cccnc1Cl (stereo not drawn) [Compound 1458] | – | 3^[c]; 3^[b] | 3^[c]; 3^[b]
27 | CONC(=O)C(C#N)=C(NC(C)c1nccs1)c1ccc(Cl)nc1Cl (stereo not drawn) [Compound 1459] | – | 1.94 | –
28 | CNC(=O)C(C#N)=C(NC(C)c1nccs1)c1ccc(Cl)nc1Cl (stereo not drawn) [Compound 1460] | – | 2.29 | –
29 | C=CCONC(=O)C(C#N)=C(NC(C)C(C)C)c1cccnc1Cl (stereo not drawn) [Compound 1461] | – | 2.62 | 2.66
30 | CCOC(=O)C(C#N)=C(NC(C)c1ccccn1)c1scnc1Cl (stereo not drawn) [Compound 1462] | 2.59^[a] | – | –
31 | CCOC(=O)C(C#N)=C(NC(C)c1nccs1)c1scnc1Cl (stereo not drawn) [Compound 1463] | 2.59^[a] | – | –
32 | CCOC(=O)C(C#N)=C(NC1CCC1)c1scnc1Cl [Compound 1465] | 3^[a] | – | –
33 | CCOC(=O)C(C#N)=C(NC(C)C1CC1)c1scnc1Cl (stereo not drawn) [Compound 1466] | 2.02^[a] | – | –
34 | CCOC(=O)C(C#N)=C(NC(C)COC)c1scnc1Cl (stereo not drawn) [Compound 1467] | 2.61^[a] | – | –
35 | CCOC(=O)C(C#N)=C(NC(C)C(C)C)c1scnc1Cl (stereo not drawn) [Compound 1468] | 3.46^[a] | – | –
36 | CC(C)C(C)NC(=C(C#N)C(=O)NC1CS(=O)(=O)C1)c1cccnc1Cl (stereo not drawn) [Compound 1469] | – | 2.29 | 2.28
37 | CCNC(=O)C(C#N)=C(NC(C)c1nccs1)c1ccc(Cl)nc1Cl (stereo not drawn) [Compound 1471] | – | 2.65 | –
38 | CCOC(=O)C(C#N)=C(NC(C)C(C)C)c1cccnc1-c1ccc(OC)cc1 (stereo not drawn) [Compound 1472] | – | 3.59 | 3.54
39 | CCSC(=O)C(C#N)=C(NC(C)C(C)C)c1cccnc1Cl (stereo not drawn) [Compound 1474] | 3.87^[a] | – | –
40 | CCOC(=O)C(C#N)=C(NC(C)C(=O)NC)c1scnc1Cl (stereo not drawn) [Compound 1476] | 1.81^[a] | – | –
41 | CCOC(=O)C(C#N)=C(NC(C)c1c(Cl)cccc1Cl)c1scnc1Cl (stereo not drawn) [Compound 1477] | 4^[a] | – | –
42 | CCOC(=O)C(C#N)=C(NCc1ccc(C)c(C)n1)c1scnc1Cl [Compound 1478] | 1.94^[a] | – | –

Row | SMILES | Log P (pH 2.7) | Log P (pH 7.5) | Log P (pH 2.3)
43 | CC(NC(=C(C#N)C(=O)O)c1cccnc1Cl)c1nccs1 (stereo not drawn) [Compound 1479] | 1.01^[a] | – | –
44 | CCOC(=O)C(C#N)=C(NC(C)C1CC1)c1cnn(C)c1Cl (stereo not drawn) [Compound 1482] | 2.98^[a] | – | –
45 | CCOC(=O)C(C#N)=C(NC(C)C(C)C)c1cnn(C)c1Cl (stereo not drawn) [Compound 1485] | 3.25^[a] | – | –
46 | CCOC(=O)C(C#N)=C(NC(C)COC)c1cnn(C)c1Cl (stereo not drawn) [Compound 1486] | 2.42^[a] | – | –
47 | CCOC(=O)C(C#N)=C(NC1CCC1)c1cnn(C)c1Cl [Compound 1487] | 2.82^[a] | – | –
48 | CCOC(=O)C(C#N)=C(NC(C)C(=O)NC)c1cnn(C)c1Cl (stereo not drawn) [Compound 1488] | 1.63^[a] | – | –
49 | CCSC(=O)C(C#N)=C(NC(C)c1nccs1)c1cccnc1Cl (stereo not drawn) [Compound 1489] | 2.9^[a] | – | –
50 | C=CCOC(=O)C(C#N)=C(NC(C)c1nccs1)c1cccnc1Cl (stereo not drawn) [Compound 1490] | 2.62^[a] | – | –
51 | CC(C)C(C)NC(=C(C#N)C(=O)N1CCCC1)c1cccnc1Cl (stereo not drawn) [Compound 1491] | 3.02^[a] | – | –
52 | COCCNC(=O)C(C#N)=C(NC(C)C(C)C)c1cccnc1Cl (stereo not drawn) [Compound 1492] | 2.73^[a] | – | –
53 | CC(C)C(C)NC(=C(C#N)C(=O)NC1CCCC1)c1cccnc1Cl (stereo not drawn) [Compound 1493] | 3.9^[a] | – | –
54 | CC(C)CNC(=O)C(C#N)=C(NC(C)C(C)C)c1cccnc1Cl (stereo not drawn) [Compound 1494] | 3.74^[a] | – | –
55 | CCOC(=O)C(C#N)=C(NC(C)C(C)C)c1ccnc2ccccc12 (stereo not drawn) [Compound 1496] | 3.29^[a] | – | –
56 | CCOC(=O)C(C#N)=C(NC1CCC1)c1ccnc2ccccc12 [Compound 1498] | 2.88^[a] | – | –
57 | CCOC(=O)C(C#N)=C(NC(C)COC)c1ccnc2ccccc12 (stereo not drawn) [Compound 1499] | 2.5^[a] | – | –
58 | CCOC(=O)C(C#N)=C(NC(C)c1nccs1)c1cnn(C)c1Cl (stereo not drawn) [Compound 1501] | 2.42^[a] | – | –
59 | CCOC(=O)C(C#N)=C(NC(C)c1nccs1)c1ccnc2ccccc12 (stereo not drawn) [Compound 1502] | 2.5^[a] | – | –
60 | CCOC(=O)C(C#N)=C(NC(C)C(=O)NC)c1ccnc2ccccc12 (stereo not drawn) [Compound 1503] | 1.8^[a] | – | –
61 | CCOC(=O)C(C#N)=C(NC(C)C(C)C)c1cccnc1 (stereo not drawn) [Compound 1504] | – | 2.67 | 2.61
62 | CCOC(=O)C(C#N)=C(NC(C)C(C)C)c1cccnc1-c1cccs1 (stereo not drawn) [Compound 1505] | – | 3.7^[c]; 3.7^[b] | 3.7^[c]; 3.7^[b]
63 | CC(C)C(C)NC(=C(C#N)C(=O)N1CCSCC1)c1cccnc1Cl (stereo not drawn) [Compound 1507] | 3.27^[a] | – | –

Row | SMILES | Log P (pH 2.7) | Log P (pH 7.5) | Log P (pH 2.3)
64 | CC(C)C(C)NC(=C(C#N)C(=O)N1CCCCC1)c1cccnc1Cl (stereo not drawn) [Compound 1508] | 3.48^[a] | – | –
65 | CC(C)C(C)NC(=C(C#N)C(=O)N1CCSC1)c1cccnc1Cl (stereo not drawn) [Compound 1509] | 3.19^[a] | – | –
66 | CSCCNC(=O)C(C#N)=C(NC(C)C(C)C)c1cccnc1Cl (stereo not drawn) [Compound 1510] | 3.29^[a] | – | –
67 | CC(C)C(C)NC(=C(C#N)C(=O)NC1CCC1C)c1cccnc1Cl (stereo not drawn) [Compound 1511] | 4.01^[a] | – | –
68 | CC1CC(NC(=O)C(C#N)=C(NC(C)C(C)C)c2cccnc2Cl)C1 (stereo not drawn) [Compound 1512] | 4.01^[a] | – | –
69 | CC(C)C(C)NC(=C(C#N)C(=O)N(C)C1CC1)c1cccnc1Cl (stereo not drawn) [Compound 1513] | 3.02^[a] | – | –
70 | CCN(OC)C(=O)C(C#N)=C(NC(C)C(C)C)c1cccnc1Cl (stereo not drawn) [Compound 1514] | 3.15^[a] | – | –
71 | CC(C)C(C)NC(=C(C#N)C(=O)Nc1ccncc1)c1cccnc1Cl (stereo not drawn) [Compound 1515] | 1.58^[a] | – | –
72 | CC(C)C(C)NC(=C(C#N)C(=O)Nc1ccccn1)c1cccnc1Cl (stereo not drawn) [Compound 1516] | 3.21^[a] | – | –
73 | CC(C)C(C)NC(=C(C#N)C(=O)NCc1ccccn1)c1cccnc1Cl (stereo not drawn) [Compound 1517] | 1.94^[a] | – | –
74 | CC(C)C(C)NC(=C(C#N)C(=O)N1CCOCC1)c1cccnc1Cl (stereo not drawn) [Compound 1518] | 2.58^[a] | – | –
75 | CCOC(=O)C(C#N)=C(NC(C)C(C)C)c1cccnc1-c1ccsc1 (stereo not drawn) [Compound 1519] | – | 3.57 | 3.55
76 | CCOC(=O)C(C#N)=C(NC(C)c1ncc(C)s1)c1cccnc1Cl (stereo not drawn) [Compound 1520] | 2.92^[a] | – | –
77 | C#CC(NC(=C(C#N)C(=O)OCC)c1cccnc1Cl)C(C)C (stereo not drawn) [Compound 1521] | 3.37^[a] | – | –
78 | CCOC(=O)C(C#N)=C(NC(C)[Si](C)(C)C)c1cccnc1Cl (stereo not drawn) [Compound 1522] | 3.87^[a] | – | –
79 | CCOC(=O)C(C#N)=C(NC(C)c1c(Cl)cccc1Cl)c1cccnc1Cl (stereo not drawn) [Compound 1523] | 3.73^[a] | – | –
80 | CCOC(=O)C(C#N)=C(NC(C)c1csc(C)n1)c1cccnc1Cl (stereo not drawn) [Compound 1524] | 2.84^[a] | – | –
81 | CCOC(=O)C(C#N)=C(NC(C)C(C)CC)c1cccnc1Cl (stereo not drawn) [Compound 1525] | 3.76^[a] | – | –
82 | CCOC(=O)C(C#N)=C(NCc1ccc(C)c(C)n1)c1cccnc1Cl [Compound 1526] | 1.91^[a] | – | –
